Source: patent US20240425479A1, “HALO-SUBSTITUTED AMINO AZA-HETEROARYL COMPOUNDS AS INHIBITORS OF THE HAEMATOPOIETIC PROGENITOR KINASE 1 (HPK1)” (priority 2021, published 2024)

Biological target: T1, Recombinant (1-346) HPK1 (h) (Homo sapiens, UniProt Q92918)
T1 construct: Recombinant (1-346) HPK1 (h) is incubated with 8 mM MOPS pH 7.0
T1 sequence (Q92918 1-346): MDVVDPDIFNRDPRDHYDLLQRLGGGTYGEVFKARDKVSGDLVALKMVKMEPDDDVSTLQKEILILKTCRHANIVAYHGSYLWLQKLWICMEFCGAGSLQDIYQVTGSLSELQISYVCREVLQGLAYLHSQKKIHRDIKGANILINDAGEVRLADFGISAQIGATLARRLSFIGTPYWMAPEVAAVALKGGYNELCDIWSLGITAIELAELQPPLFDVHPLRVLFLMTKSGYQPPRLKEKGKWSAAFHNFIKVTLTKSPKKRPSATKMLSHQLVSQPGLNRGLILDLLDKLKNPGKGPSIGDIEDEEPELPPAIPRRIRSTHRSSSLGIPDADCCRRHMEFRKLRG
Experiment: HPK1 human STE kinase enzymatic radiometric assay
Assay type: biochemical
Conditions: read-out: HPK1 IC50 nM Range
Summary of the method: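 Recombinant HPK1 (1-346) incubated 40 min at RT with 0.33 mg/mL myelin basic protein and [gamma-33P]-ATP in 8 mM MOPS pH 7.0, 0.2 mM EDTA, 10 mM Mg acetate; reaction started with Mg/ATP. Stopped with 0.5% phosphoric acid, spotted on P30 filtermat, washed, scintillation counted. Compounds tested as 9-point 3-fold dilutions.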

`Nc1nc(F)c(-c2ccc(N3CCOCC3)c(CN3CCC3)c2F)nc1-c1cc(F)c2c(c1)CCNC2=O` [Example I-245, 6-(3-amino-6-(3-(azetidin-1-ylmethyl)-2-fluoro-4-morpholinophenyl)-5-fluoropyrazin-2-yl)-8-fluoro-3,4-dihydroisoquinolin-1(2H)-one] and `CCN(C)Cc1c(N2CCOCC2)ccc(-c2nc(-c3cc(F)c4c(c3)CCNC4=O)c(N)nc2F)c1F` [Example I-247, 6-(3-amino-6-(3-((ethyl(methyl)amino)methyl)-2-fluoro-4-morpholinophenyl)-5-fluoropyrazin-2-yl)-8-fluoro-3,4-dihydroisoquinolin-1(2H)-one] fall in the same range of IC50: 11 to 100 nM for the first, 11 to 100 nM for the second.

`CCN(C)Cc1c(N2CCOCC2)ccc(-c2nc(-c3cc4c(cc3F)C(=O)NCC4)c(N)nc2F)c1F` [Example I-246, 6-(3-amino-6-(3-((ethyl(methyl)amino)methyl)-2-fluoro-4-morpholinophenyl)-5-fluoropyrazin-2-yl)-7-fluoro-3,4-dihydroisoquinolin-1(2H)-one] and `CCN(C)Cc1c(N2CCOCC2)ccc(-c2nc(-c3ccc4c(c3)CCNC4=O)c(N)nc2F)c1F` [Example I-248, 6-(3-amino-6-(3-((ethyl(methyl)amino)methyl)-2-fluoro-4-morpholinophenyl)-5-fluoropyrazin-2-yl)-3,4-dihydroisoquinolin-1(2H)-one] fall in the same range of IC50: 11 to 100 nM for the first, 11 to 100 nM for the second.

First: COc1ccc(-c2nc(-c3cc4c(cc3F)C(=O)NCC4)c(N)nc2F)cc1CN(C)C [Example I-249, 6-(3-amino-6-(3-((dimethylamino)methyl)-4-methoxyphenyl)-5-fluoropyrazin-2-yl)-7-fluoro-3,4-dihydroisoquinolin-1(2H)-one]
Second: CN(C)Cc1cc(-c2nc(-c3cc4c(cc3F)C(=O)NCC4)c(N)nc2F)ccc1F [Example I-273, 6-(3-amino-6-(3-((dimethylamino)methyl)-4-fluorophenyl)-5-fluoropyrazin-2-yl)-7-fluoro-3,4-dihydroisoquinolin-1(2H)-one]
The IC50 of the first is lower: 0.1 to 10 nM for the first, 11 to 100 nM for the second.

`COc1ccc(-c2nc(-c3ccc4c(c3)CCNC4=O)c(N)nc2F)cc1CN(C)C` [Example I-250, 6-(3-amino-6-(3-((dimethylamino)methyl)-4-methoxyphenyl)-5-fluoropyrazin-2-yl)-3,4-dihydroisoquinolin-1(2H)-one] and `CN(C)Cc1cc(-c2nc(-c3ccc4c(c3)CCNC4=O)c(N)nc2F)ccc1F` [Example I-272, 6-(3-amino-6-(3-((dimethylamino)methyl)-4-fluorophenyl)-5-fluoropyrazin-2-yl)-3,4-dihydroisoquinolin-1(2H)-one] fall in the same range of IC50: 11 to 100 nM for the first, 11 to 100 nM for the second.

`CN(C)[C@@H]1COc2ccc(-c3nc(-c4ccc5c(=O)[nH]cc(F)c5c4)c(N)nc3F)cc21` [Example I-251, (S)-6-(3-amino-6-(3-(dimethylamino)-2,3-dihydrobenzofuran-5-yl)-5-fluoropyrazin-2-yl)-4-fluoroisoquinolin-1(2H)-one] and `CN(C)[C@@H]1COc2ccc(-c3nc(-c4ccc5c(=O)[nH]cc(Cl)c5c4)c(N)nc3F)cc21` [Example I-252, (S)-6-(3-amino-6-(3-(dimethylamino)-2,3-dihydrobenzofuran-5-yl)-5-fluoropyrazin-2-yl)-4-chloroisoquinolin-1(2H)-one] fall in the same range of IC50: 0.1 to 10 nM for the first, 0.1 to 10 nM for the second.

First: CN(C)[C@@H]1COc2ccc(-c3nc(-c4cc(F)c5c(=O)[nH]cc(F)c5c4)c(N)nc3F)cc21 [Example I-253, (S)-6-(3-amino-6-(3-(dimethylamino)-2,3-dihydrobenzofuran-5-yl)-5-fluoropyrazin-2-yl)-4,8-difluoroisoquinolin-1(2H)-one]
Second: CN(C)[C@@H]1COc2ccc(-c3nc(-c4cc(F)c5c(c4)CCNC5=O)c(N)nc3F)cc21 [Example I-254, (S)-6-(3-amino-6-(3-(dimethylamino)-2,3-dihydrobenzofuran-5-yl)-5-fluoropyrazin-2-yl)-8-fluoro-3,4-dihydroisoquinolin-1(2H)-one]
The IC50 of the first is lower: 0.1 to 10 nM for the first, 11 to 100 nM for the second.

First: CN(C)[C@@H]1COc2ccc(-c3nc(-c4cc5c(cc4F)C(=O)NCC5)c(N)nc3F)cc21 [Example I-255, (S)-6-(3-amino-6-(3-(dimethylamino)-2,3-dihydrobenzofuran-5-yl)-5-fluoropyrazin-2-yl)-7-fluoro-3,4-dihydroisoquinolin-1(2H)-one]
Second: CN(C)[C@@H]1COc2ccc(-c3nc(-c4ccc5c(c4)C(F)(F)CNC5=O)c(N)nc3F)cc21 [Example I-256, (S)-6-(3-amino-6-(3-(dimethylamino)-2,3-dihydrobenzofuran-5-yl)-5-fluoropyrazin-2-yl)-4,4-difluoro-3,4-dihydroisoquinolin-1(2H)-one]
The IC50 of the first is higher: 11 to 100 nM for the first, 0.1 to 10 nM for the second. The second is the more potent here.

`CN(C)Cc1cc(-c2nc(-c3ccc4c(c3)CCNC4=O)c(N)nc2F)c(F)cc1N1CCOCC1` [Example I-258, 6-(3-amino-6-(5-((dimethylamino)methyl)-2-fluoro-4-morpholinophenyl)-5-fluoropyrazin-2-yl)-3,4-dihydroisoquinolin-1(2H)-one] and `CN(C)Cc1cc(-c2nc(-c3ccc4c(c3)CCNC4=O)c(N)nc2F)c(F)c(F)c1N1CCOCC1` [Example I-262, 6-(3-amino-6-(5-((dimethylamino)methyl)-2,3-difluoro-4-morpholinophenyl)-5-fluoropyrazin-2-yl)-3,4-dihydroisoquinolin-1(2H)-one] fall in the same range of IC50: 101 to 1000 nM for the first, 101 to 1000 nM for the second.

Compared with `CN(C)Cc1cc(-c2nc(-c3ccc4c(=O)[nH]cc(F)c4c3)c(N)nc2F)c(F)cc1N1CCOCC1` [Example I-259, 6-(3-amino-6-(5-((dimethylamino)methyl)-2-fluoro-4-morpholinophenyl)-5-fluoropyrazin-2-yl)-4-fluoroisoquinolin-1(2H)-one], `Cc1c[nH]c(=O)c2ccc(-c3nc(-c4cc(CN(C)C)c(N5CCOCC5)cc4F)c(F)nc3N)cc12` [Example I-261, 6-(3-amino-6-(5-((dimethylamino)methyl)-2-fluoro-4-morpholinophenyl)-5-fluoropyrazin-2-yl)-4-methylisoquinolin-1(2H)-one] is higher in IC50: 11 to 100 nM for the first, 101 to 1000 nM for the second.

`CC(C)N1CCN(c2ccc(-c3nc(-c4ccc5c(c4)C4(CC4)NCC5=O)c(N)nc3F)cc2)CC1` [Example I-260, 7′-(3-amino-5-fluoro-6-(4-(4-isopropylpiperazin-1-yl)phenyl)pyrazin-2-yl)-2′,3′-dihydro-4′H-spiro[cyclopropane-1,1′-isoquinolin]-4′-one] and `CC(C)(N)c1cc(-c2nc(-c3ccc4c(c3)CCNC4=O)c(N)nc2F)ccc1F` [Example I-271, 6-(3-amino-6-(3-(2-aminopropan-2-yl)-4-fluorophenyl)-5-fluoropyrazin-2-yl)-3,4-dihydroisoquinolin-1(2H)-one] fall in the same range of IC50: 101 to 1000 nM for the first, 101 to 1000 nM for the second.

First: CN(C)Cc1cc(-c2nc(-c3ccc4c(=O)[nH]cc(F)c4c3)c(N)nc2F)c(F)c(F)c1N1CCOCC1 [Example I-263, 6-(3-amino-6-(5-((dimethylamino)methyl)-2,3-difluoro-4-morpholinophenyl)-5-fluoropyrazin-2-yl)-4-fluoroisoquinolin-1(2H)-one]
Second: Cc1c[nH]c(=O)c2ccc(-c3nc(-c4cc(CN(C)C)c(N5CCOCC5)c(F)c4F)c(F)nc3N)cc12 [Example I-264, 6-(3-amino-6-(5-((dimethylamino)methyl)-2,3-difluoro-4-morpholinophenyl)-5-fluoropyrazin-2-yl)-4-methylisoquinolin-1(2H)-one]
The IC50 of the first is lower: 11 to 100 nM for the first, 101 to 1000 nM for the second.

`CN(C)Cc1cc(-c2nc(-c3ccc4c(=O)[nH]cc(F)c4c3)c(N)nc2F)cc(F)c1N1CCOCC1` [Example I-265, 6-(3-amino-6-(3-((dimethylamino)methyl)-5-fluoro-4-morpholinophenyl)-5-fluoropyrazin-2-yl)-4-fluoroisoquinolin-1(2H)-one] and `Cc1c[nH]c(=O)c2ccc(-c3nc(-c4cc(F)c(N5CCOCC5)c(CN(C)C)c4)c(F)nc3N)cc12` [Example I-266, 6-(3-amino-6-(3-((dimethylamino)methyl)-5-fluoro-4-morpholinophenyl)-5-fluoropyrazin-2-yl)-4-methylisoquinolin-1(2H)-one] fall in the same range of IC50: 0.1 to 10 nM for the first, 0.1 to 10 nM for the second.

`CN(C)Cc1cc(-c2nc(-c3ccc4c(=O)[nH]cc(F)c4c3)c(N)nc2F)cc2c1OCCC2` [Example I-268, 6-(3-amino-6-(8-((dimethylamino)methyl)chroman-6-yl)-5-fluoropyrazin-2-yl)-4-fluoroisoquinolin-1(2H)-one] and `CN(C)Cc1cc(-c2nc(-c3ccc4c(=O)[nH]cc(F)c4c3)c(N)nc2F)cc2c1OCCO2` [Example I-269, 6-(3-amino-6-(8-((dimethylamino)methyl)-2,3-dihydrobenzo[b][1,4]dioxin-6-yl)-5-fluoropyrazin-2-yl)-4-fluoroisoquinolin-1(2H)-one] fall in the same range of IC50: 0.1 to 10 nM for the first, 0.1 to 10 nM for the second.

Compared with `CN(C)Cc1cc(-c2nc(-c3ccc4c(=O)[nH]cc(F)c4c3)c(N)nc2F)ccc1OC(F)F` [Example I-270, 6-(3-amino-6-(4-(difluoromethoxy)-3-((dimethylamino)methyl)phenyl)-5-fluoropyrazin-2-yl)-4-fluoroisoquinolin-1(2H)-one], `CN(C)Cc1cc(-c2nc(-c3cc(F)c4c(c3)CCNC4=O)c(N)nc2F)ccc1F` [Example I-274, 6-(3-amino-6-(3-((dimethylamino)methyl)-4-fluorophenyl)-5-fluoropyrazin-2-yl)-8-fluoro-3,4-dihydroisoquinolin-1(2H)-one] is higher in IC50: 0.1 to 10 nM for the first, 101 to 1000 nM for the second.
